According to Sander's compilation of Henry's law constants (doi:10.1016/s0021-9673(98)00877-2):

assay: Henry solubility constant Hcp at 298.15 K (mol/(m3 Pa)); conditions: reference: Dewulf et al. (1999)

SMILES	Henry solubility constant Hcp
ClCC(Cl)Cl [1,1,2-trichloroethane]	0.011
C=C(Cl)Cl [1,1-dichloroethene]	0.00037
Clc1cccc(Cl)c1Cl [1,2,3-trichlorobenzene]	0.0036
CC(Cl)CCl (centres undefined) [1,2-dichloropropane]	0.0035
Clc1cc(Cl)cc(Cl)c1 [1,3,5-trichlorobenzene]	0.0018
Clc1ccccc1 [chlorobenzene]	0.0025
C1CCCCC1 [cyclohexane]	5.2e-05
Fc1ccccc1 [fluorobenzene]	0.0014
ClC(Cl)=C(Cl)C(Cl)=C(Cl)Cl [hexachlorobutadiene]	0.00062
COc1ccccc1 [methoxybenzene]	0.026
Cc1ccccc1 [methylbenzene]	0.0015
c1ccc2ccccc2c1 [naphthalene]	0.013
O=[N+]([O-])c1ccccc1 [nitrobenzene]	0.023
ClC=C(Cl)Cl [trichloroethene]	0.00095
